From US20150197433A1, “Compositions and methods for treating toilets” (Integrated Chemical Technologies, Inc., priority 2014, published 2015) come the findings set out here.

The assay deals with urease enzyme. As to the kind of experiment: Testing Glycine Hydroxamate: ammonia odor of treated water loaded with urine and fecal matter. The conditions noted are these: for odor of ammonia: 0.04 grams in 200 ml water with bronopol, citric acid, sodium bicarbonate, sulfamic acid, fragrance, approximately 80° F., after 7 days. How it is done:
To each of two flask, 200 ml of distilled water was combined with 0.04 grams of bronopol, 0.04 grams of either acetylhydroxamic acid or 0.04 grams of glycine hydroxamate, 0.10 grams of citric acid, 0.023 grams sodium bicarbonate, 0.027 grams of sulfamic acid, and 0.04 grams of mulberry fragrance. To each sample, 9 ml of urine and 1.5 grams of fecal matter was added and swirled.

In the case of `CC(=O)NO` [acetylhydroxamic acid, reference compound], the odor of ammonia entry is reported as “no detectable odor of ammonia”. On to `NCC(=O)NO` [glycine hydroxamate], for which the odor of ammonia result is “no detectable odor of ammonia”. For the same molecule, the “performance compared with acetylhydroxamic acid” value (under test conditions) is “comparable to acetylhydroxamic acid”.
